Data on one molecule can be found in ChEMBL document CHEMBL6153137, “Design, Synthesis, and Biological Evaluation of Novel Orally Available Covalent CDK12/13 Dual Inhibitors for the Treatment of Tumors” (J Med Chem, 2025).

Structures are written as SMILES.

Series [1] has as its target CDK3/Cyclin E (Homo sapiens) (UniProt P24864+Q00526). Nature of the series: Inhibition of human recombinant N-terminal GST-tagged CDK3/N-terminal 6X His-tagged Cyclin E1 expressed in HEP Sf9 cells using ATP as substrate at 2 uM measured after 60 mins by ADP-Glo reagent based luminescence analysis. In general terms: ADP-Glo first removes unused ATP, then detects ADP through luciferase.

A further series has as its system HEP Sf9. Nature of the series: Inhibition of human recombinant N-terminal GST-tagged CDK6/C-terminal 6X His-tagged Cyclin D3 S259A mutant expressed in HEP Sf9 cells using ATP as substrate at 2 uM measured after 60 mins by ADP-Glo reagent based luminescence analysis.
Another series addresses Cytochrome P450 2C19 (Homo sapiens, UniProt P33261). The series is described as follows: Inhibition of CYP2C19 in human liver microsomes assessed as inhibition of S-mephenytoin-4-hydroxylation incubated for 10 mins in presence of NADPH by LC-MS/MS analysis. It counts as ADME, Microsome.
A further series concerns the target Cytochrome P450 3A4 (Homo sapiens, UniProt P08684). Nature of the series: Inhibition of CYP3A4 in human liver microsomes assessed as inhibition of midazolam-1'-hydroxylation incubated for 10 mins in presence of NADPH by LC-MS/MS analysis. It counts as ADME, Microsome. A general note: Liver microsomes are a subcellular fraction often used to study metabolism.
Another series deals with SUM149PT. Nature of the series: Antitumor activity against human SUM149PT cells xenografted in Balb/c mouse assessed as inhibition of tumor growth at 30 mg/kg, po administered once daily via gavage and measured on day 20. The series is classed as functional. The settings on record: 480 h, time 20 day, read-out: TGI. On the technique in general: A xenograft is tissue or cells of one species grown in another, often human tumour cells in immunodeficient mice.

Series [2] can be described thus: Toxicity against male Sprague-Dawley rat assessed as perianal contamination at 40 mg/kg, po administered once daily via gavage for 28 days. It counts as organism-based. To be noted: in vivo, 672 h, time 28 day.
The nature of series [3]: Toxicity against male Sprague-Dawley rat assessed as effect on hemoglobin level at 10 to 40 mg/kg, po administered once daily via gavage for 28 days and measured on day 29. It counts as organism-based. The settings on record: in vivo, 696 h, dose 10-40 mg/kg, time 29 day.
Series [4] in a line: Half life in female Sprague-Dawley rat at 30 mg/kg, po administered via gavage and measured on day 1. The series is classed as ADME, organism-based. The settings on record: in vivo, time 1 day.
Series [5] can be described thus: Cmax in male Sprague-Dawley rat at 20 mg/kg, po administered via gavage and measured on day 1. To be noted: in vivo, time 1 day. It counts as ADME, organism-based.
Series [6] can be described thus: Cmax in male Sprague-Dawley rat at 40 mg/kg, po administered via gavage and measured on day 1. The settings on record: in vivo, time 1 day. It counts as ADME, organism-based.
The nature of series [7]: AUC(0 to t) in female Sprague-Dawley rat at 7.5 mg/kg, po administered via gavage and measured on day 1. The series is classed as ADME, organism-based. The settings on record: in vivo, 24 h, time 1 day.

CDK3/Cyclin E (Homo sapiens), sequence (P24864 whole entry, looked up): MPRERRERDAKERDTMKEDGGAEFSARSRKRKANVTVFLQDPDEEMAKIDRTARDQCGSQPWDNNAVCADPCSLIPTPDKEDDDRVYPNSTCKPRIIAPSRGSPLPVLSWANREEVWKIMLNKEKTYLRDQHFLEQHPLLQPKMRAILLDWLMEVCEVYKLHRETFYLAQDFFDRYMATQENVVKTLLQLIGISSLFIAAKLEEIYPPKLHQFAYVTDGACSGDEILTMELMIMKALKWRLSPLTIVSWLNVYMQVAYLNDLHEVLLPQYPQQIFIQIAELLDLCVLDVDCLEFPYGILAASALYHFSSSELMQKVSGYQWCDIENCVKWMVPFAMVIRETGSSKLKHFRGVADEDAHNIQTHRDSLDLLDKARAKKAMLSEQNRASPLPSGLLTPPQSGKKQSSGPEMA
CDK3/Cyclin E (Homo sapiens), sequence (Q00526 whole entry, looked up): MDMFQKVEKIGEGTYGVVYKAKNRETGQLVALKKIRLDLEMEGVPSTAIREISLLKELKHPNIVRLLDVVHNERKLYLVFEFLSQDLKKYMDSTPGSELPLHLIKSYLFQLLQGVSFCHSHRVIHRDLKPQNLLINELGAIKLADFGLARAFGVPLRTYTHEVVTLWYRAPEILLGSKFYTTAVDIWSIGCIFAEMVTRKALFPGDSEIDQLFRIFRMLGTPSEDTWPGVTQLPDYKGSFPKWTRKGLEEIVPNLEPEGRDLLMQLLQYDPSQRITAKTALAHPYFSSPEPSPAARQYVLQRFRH
Cytochrome P450 2C19, sequence (P33261 whole entry): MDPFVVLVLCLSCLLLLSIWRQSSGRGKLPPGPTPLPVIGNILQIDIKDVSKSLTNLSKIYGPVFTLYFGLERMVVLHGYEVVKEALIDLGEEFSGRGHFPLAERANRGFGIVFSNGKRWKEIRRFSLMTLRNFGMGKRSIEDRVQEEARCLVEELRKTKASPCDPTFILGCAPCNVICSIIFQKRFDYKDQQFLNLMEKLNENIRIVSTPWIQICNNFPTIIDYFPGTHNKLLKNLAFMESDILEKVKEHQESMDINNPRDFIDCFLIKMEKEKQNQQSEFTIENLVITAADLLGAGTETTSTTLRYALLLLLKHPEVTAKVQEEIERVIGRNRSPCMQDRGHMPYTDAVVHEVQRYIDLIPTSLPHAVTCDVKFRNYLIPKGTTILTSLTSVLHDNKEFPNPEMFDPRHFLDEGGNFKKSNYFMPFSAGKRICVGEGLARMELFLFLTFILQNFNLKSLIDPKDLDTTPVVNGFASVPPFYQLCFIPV
Cytochrome P450 3A4, sequence (P08684 whole entry): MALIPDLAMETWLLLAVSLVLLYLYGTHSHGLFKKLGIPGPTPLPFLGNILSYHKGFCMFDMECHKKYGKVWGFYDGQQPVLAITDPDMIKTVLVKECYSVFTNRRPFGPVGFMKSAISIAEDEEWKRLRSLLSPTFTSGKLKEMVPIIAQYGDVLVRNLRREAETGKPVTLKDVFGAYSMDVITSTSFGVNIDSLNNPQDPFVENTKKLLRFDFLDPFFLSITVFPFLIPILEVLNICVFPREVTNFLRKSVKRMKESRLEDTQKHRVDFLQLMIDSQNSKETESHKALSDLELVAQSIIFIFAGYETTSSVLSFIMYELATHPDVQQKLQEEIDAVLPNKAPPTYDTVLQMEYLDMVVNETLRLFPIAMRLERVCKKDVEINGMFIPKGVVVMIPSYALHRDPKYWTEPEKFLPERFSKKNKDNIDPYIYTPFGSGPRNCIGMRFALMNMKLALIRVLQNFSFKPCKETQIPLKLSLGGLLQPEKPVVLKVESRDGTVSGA

On to `C=CC(=O)N1CCc2c(ncnc2N2CC[C@@H](Nc3ncc(Cl)c(OC)n3)C2)C1`, for which the inhibition in series [1] turned out to be 46%; in the series with HEP Sf9 it was 23%. Also, the IC50 at Cytochrome P450 2C19 and on Cytochrome P450 3A4 was greater than 50 µM each time. The inhibition in vivo at 30 mg/kg in the series on SUM149PT was 101%. The Activity entry is “Toxic” in series [2] and “Non-toxic” in series [3]. In [4], this molecule showed a half-life of 4 h. Moreover, the Cmax in series [5] amounted to 1070 ng/mL; in series [6], 1660 ng/mL. The AUCt in series [7] was found to be 1640 ng·h/mL.

In general, inhibition refers to the drop in the measured response relative to a control, in per cent. In general, IC50 refers to the concentration needed to halve the response being measured. As usually defined, the half-life is the time in which the quantity being followed falls by half. High values mean slow loss, low ones fast loss. The Cmax is the highest concentration seen after dosing.
